Assay results: patent US12415939B2, “Nano-adhesive and surface primer compound and use thereof” (The Regents of the University of California, priority 2015, dated 2025)

Legend:
Assay type in all cases: physicochemical
[1] = AFM adhesion force runs with silica probe on Z-Cat-C10 coated copper plate; details: CuO2/Cu(OH)2 and SiO2 surfaces
Experimental: AFM force runs were measured with and without Z-Cat-C10 on silicon wafer and copper plate, respectively, vs. silicon dioxide probe. Underwater force run was conducted for the surface prepared subsequently after spreading the 5 mM Z-Cat-C10, waiting for 2 min, rinsing thoroughly with degassed DI water thoroughly for 3 times. Dry force run was performed after ˜5 min dry of the surface prepared as for the underwater force run. […] Cantilever spring constant (K) for #=10 μm silica tip on silicon wafer and copper plate with Z-Cat-C10, was 0.1 N m^−1.
The measured adhesion, Fa, force (minimum of the potential well of the F vs. D curves obtained from AFM measurements) is related to the adhesion energy per unit area by Wa=Fa/2πR for rigid surfaces with weak adhesive interactions, and by Wa=Fa/1.5πR (used in this study) for soft deformable surfaces with strong adhesion or cohesion. […]
The adhesion/cohesion energy of the synthetic zwitterionic molecules was investigated in SFA (SurForce LLC, Santa Barbara, CA). […] The adhesion forces between Z-Cat-C10 molecules on various surfaces, e.g., silica and copper, were also measured by AFM (MFP-3D, Asylum research, Goleta, CA) in DI water and ambient conditions, respectively, at room temperature. […] Cantilever spring constants were measured for each force run. […]

[2] = AFM images of Z-Cat-C10 films; details: 5 mM, on silicon wafers and copper
Experimental: The adhesion/cohesion energy of the synthetic zwitterionic molecules was investigated in SFA (SurForce LLC, Santa Barbara, CA). Two molecularly smooth freshly cleaved back silvered mica surfaces glued on cylindrical silica discs of radius of curvature, R˜2 cm, were mounted in the SFA and 50 μL of a colloidal dispersion of the synthetic molecules in DI water were injected between the surfaces at different concentrations (C=0.5-5 mM) and the forces between the thin films of the molecules were measured by Multiple Beam Interferometry (MBI). The adhesion forces between Z-Cat-C10 molecules on various surfaces, e.g., silica and copper, were also measured by AFM (MFP-3D, Asylum research, Goleta, CA) in DI water and ambient conditions, respectively, at room temperature. AFM probes with a silicon dioxide particle (10, 5, and 1 μm, respectively) on a silicon nitride (SN) cantilever-0.6 N m^−1 were purchased from Novascan Technologies, Inc (Ames, IA). Cantilever spring constants were measured for each force run. Images of Z-Cat-C10 coating on silicon wafer and copper plates were visualized in an AFM.

[3] = QCM-D adsorption of zwitterionic molecules; details: silica
From the text: Quartz Crystal Microbalance (QCM): Adsorption of the molecules on different surfaces such as silica, SiO2, (FIGS. 7A-7E) and titania, TiO2, (FIGS. 8A-8E) was also explored by the quartz crystal microbalance (QCM) and confocal fluorescence microscopy after rhodamine staining (FIG. 27A-27B). Quartz crystal microbalance with dissipation (QCM-D): A “static cell” (often called “Open Model”) QCM-D (Q-Sense, Biolin Scientific) was employed to qualitatively show the adsorption of the zwitterionic molecules onto mineral and metal oxide surfaces. 50 μl of 5 mM zwitterionic solution was deposited onto TiO2 and SiO2 surface, respectively, in DI H2O (100 μl) using a static cell via two-step adsorption. […] However, a quantitative discussion regarding the adsorbed mass (frequency shift) and the viscoelastic properties (dissipation) of the adsorbed “soft” layers is challenging because the mass of the zwitterionic molecules cannot be separated from the mass of adsorbed water. […]
Quartz crystal microbalance with dissipation (QCM-D) is an extension to the QCM technique developed by Q-Sense® and can be used to determine the rigidity/softness and the viscoelastic properties of the adsorbed material. The QCM quartz crystal was coated with different rigid materials (e.g., metals, polymers, dielectrics) and the adsorption kinetics can be monitored on these materials in liquid environment. […]

| Structure (SMILES) | adhesion Wad after air-drying ([1]; air-dried ~5 min) | wet work of adhesion Wad ([1]; underwater) | film thickness (thin, molecularly smooth films) [2] | adsorbed mass ([3]; 5 mM, zero applied pressure) | adsorbed layer thickness ([3]; Voigt model) |
| --- | --- | --- | --- | --- | --- |
| CN(C)CCOP(=O)(O)OCCCc1ccc(O)c(O)c1 [Z-Cat-C10] | ~4 mJ m^−2 | ~0.1 mJ m^−2 | ~2 nm |  |  |
| C[N+](C)(CCCc1ccccc1)CCOP(=O)([O-])OCCCc1ccc(O)c(O)c1 [Z-Cat-Ben] |  |  |  | 85 ng/cm^2 | 1 nm |
